Measured values: PubChem BioAssay AID248 (DTP/NCI, 2004)
Toxic doses and inconclusive results are not listed.

Test system: L1210 leukemia ip in BDF1 mice, survival T/C
Assay: NCI In Vivo Anticancer Drug Screen. Data for tumor model L1210 Leukemia (intraperitoneal) in B6D2F1 (BDF1) mice
Details: endpoint: mean survival time, higher = longer survival
How it was run: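 Tumor was transplanted into mice, which were then dosed with test compound or vehicle alone. Survival was recorded for each group, and the treated figure was expressed relative to the control figure.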

[1] = dose: 100.0 mg/kg/injection, schedule: Q04DX002 (ip), vehicle: Klucel (hydroxypropylcellulose) (HPC)
[2] = dose: 200.0 mg/kg/injection, schedule: Q04DX002 (ip), vehicle: Klucel (hydroxypropylcellulose) (HPC)
[3] = dose: 400.0 mg/kg/injection, schedule: Q04DX002 (ip), vehicle: Klucel (hydroxypropylcellulose) (HPC)
[4] = dose: 100.0 mg/kg/injection, schedule: Q01DX009 (ip), vehicle: saline with Tween-80
[5] = dose: 200.0 mg/kg/injection, schedule: Q01DX009 (ip), vehicle: saline with Tween-80
[6] = dose: 100.0 mg/kg/injection, schedule: Q01DX001 (ip), vehicle: Klucel (hydroxypropylcellulose) (HPC)
[7] = dose: 200.0 mg/kg/injection, schedule: Q01DX001 (ip), vehicle: Klucel (hydroxypropylcellulose) (HPC)
[8] = dose: 100.0 mg/kg/injection, schedule: Q01DX009 (ip), vehicle: Klucel (hydroxypropylcellulose) (HPC)
[9] = dose: 100.0 mg/kg/injection, schedule: Q04DX003 (ip), vehicle: Klucel (hydroxypropylcellulose) (HPC)
[10] = dose: 200.0 mg/kg/injection, schedule: Q01DX009 (ip), vehicle: Klucel (hydroxypropylcellulose) (HPC)
[11] = dose: 200.0 mg/kg/injection, schedule: Q04DX003 (ip), vehicle: Klucel (hydroxypropylcellulose) (HPC)
[12] = dose: 400.0 mg/kg/injection, schedule: Q01DX009 (ip), vehicle: Klucel (hydroxypropylcellulose) (HPC)
[13] = dose: 400.0 mg/kg/injection, schedule: Q04DX003 (ip), vehicle: Klucel (hydroxypropylcellulose) (HPC)
[14] = dose: 100.0 mg/kg/injection, schedule: Q01DX001 (ip), vehicle: carboxymethylcellulose (CMC)
[15] = dose: 200.0 mg/kg/injection, schedule: Q01DX001 (ip), vehicle: carboxymethylcellulose (CMC)
[16] = dose: 400.0 mg/kg/injection, schedule: Q01DX001 (ip), vehicle: carboxymethylcellulose (CMC)
[17] = dose: 400.0 mg/kg/injection, schedule: Q01DX001 (ip), vehicle: Klucel (hydroxypropylcellulose) (HPC)
[18] = dose: 400.0 mg/kg/injection, schedule: Q01DX009 (ip), vehicle: saline with Tween-80

Structure (SMILES): NC(=O)C1C(c2ccccc2)C1c1ccccc1 (stereo unspecified)
- T/C [1]: 97 % of control
- T/C [2]: 102 % of control
- T/C [3]: 94 % of control

Structure (SMILES): CC1(C)C2(c3ccccc3)C3C=CC3C12c1ccccc1 (stereo unspecified)
- T/C [1]: 109 % of control
- T/C [2]: 112 % of control
- T/C [3]: 102 % of control

Structure (SMILES): NC(N)=N/N=C/C(=N/N=C(N)N)c1ccccc1
- T/C (dose: 30.0 mg/kg/injection, schedule: Q01DX Z (oral), vehicle: carboxymethylcellulose (CMC)): 108 % of control
- T/C (dose: 60.0 mg/kg/injection, schedule: Q01DX Z (oral), vehicle: carboxymethylcellulose (CMC)): 115 % of control
- T/C (dose: 120.0 mg/kg/injection, schedule: Q01DX Z (oral), vehicle: carboxymethylcellulose (CMC)): 105 % of control
- T/C (dose: 240.0 mg/kg/injection, schedule: Q01DX Z (oral), vehicle: carboxymethylcellulose (CMC)): 103 % of control

Structure (SMILES): Nc1ccc(P(=O)(O)c2ccc(N)cc2)cc1
- T/C (dose: 75.0 mg/kg/injection, schedule: Q01DX001 (ip), vehicle: carboxymethylcellulose (CMC)): 94 % of control
- T/C (dose: 150.0 mg/kg/injection, schedule: Q01DX001 (ip), vehicle: carboxymethylcellulose (CMC)): 97 % of control
- T/C (dose: 300.0 mg/kg/injection, schedule: Q01DX001 (ip), vehicle: carboxymethylcellulose (CMC)): 103 % of control

Structure (SMILES): N=c1c(-c2ccccc2)cc2ccccc2n1O
- T/C (dose: 75.0 mg/kg/injection, schedule: Q01DX001 (ip), vehicle: other): 103 % of control
- T/C (dose: 150.0 mg/kg/injection, schedule: Q01DX001 (ip), vehicle: other): 101 % of control
- T/C (dose: 300.0 mg/kg/injection, schedule: Q01DX001 (ip), vehicle: other): 98 % of control

Structure (SMILES): Cc1c(-c2ccccc2)ccnc1C#N
- T/C (dose: 50.0 mg/kg/injection, schedule: Q01DX009 (ip), vehicle: saline with Tween-80): 97 % of control
- T/C [4]: 102 % of control
- T/C [5]: 97 % of control

Structure (SMILES): O=C1C(NC2CCCCC2)=C(c2ccccc2)c2ccccc21
- T/C (dose: 50.0 mg/kg/injection, schedule: Q01DX001 (ip), vehicle: Klucel (hydroxypropylcellulose) (HPC)): 94 % of control
- T/C [6]: 92 % of control
- T/C [7]: 94 % of control

Structure (SMILES): COC1(c2ccccc2)C(c2ccccc2)=CC(c2ccccc2)=[N+]1[O-] (stereo unspecified)
- T/C (dose: 75.0 mg/kg/injection, schedule: Q04DX003 (ip), vehicle: saline): 92 % of control
- T/C (dose: 150.0 mg/kg/injection, schedule: Q04DX003 (ip), vehicle: saline): 89 % of control
- T/C (dose: 300.0 mg/kg/injection, schedule: Q04DX003 (ip), vehicle: saline): 91 % of control

Structure (SMILES): O=C(CCC[n+]1ccccc1)CC(O)(C(F)(F)F)C(F)(F)F
- T/C (dose: 50.0 mg/kg/injection, schedule: Q01DX009 (ip), vehicle: saline): 105 % of control
- T/C (dose: 100.0 mg/kg/injection, schedule: Q01DX009 (ip), vehicle: saline): 103 % of control
- T/C (dose: 100.0 mg/kg/injection, schedule: Q04DX003 (ip), vehicle: saline): 103 % of control
- T/C (dose: 200.0 mg/kg/injection, schedule: Q01DX009 (ip), vehicle: saline): 100 % of control
- T/C (dose: 200.0 mg/kg/injection, schedule: Q04DX003 (ip), vehicle: saline): 106 % of control

Structure (SMILES): CCOC(=O)c1ccc(NS(C)(=O)=O)cc1
- T/C [8]: 95 % of control
- T/C [9]: 114 % of control
- T/C [10]: 95 % of control
- T/C [11]: 102 % of control
- T/C [12]: 92 % of control
- T/C [13]: 100 % of control

Structure (SMILES): S=P(NCCCCCCCCNP(=S)(N1CC1)N1CC1)(N1CC1)N1CC1
- T/C [14]: 102 % of control
- T/C [15]: 119 % of control
- T/C [16]: 107 % of control

Structure (SMILES): Nc1nc(SCc2ccccc2Cl)cc(C(=O)O)n1
- T/C (dose: 50.0 mg/kg/injection, schedule: Q01DX Z (ip), vehicle: methylcellulose (MC)): 102 % of control

Structure (SMILES): CC1=CC(=O)C=CC1(C)C
- T/C [6]: 100 % of control
- T/C [8]: 94 % of control
- T/C [7]: 100 % of control
- T/C [10]: 94 % of control
- T/C [17]: 108 % of control

Structure (SMILES): O=NN(CCF)C(=O)NC1CCSc2ccccc21 (stereo unspecified)
- T/C (dose: 6.0 mg/kg/injection, schedule: Q01DX001 (ip), vehicle: other): 109 % of control
- T/C (dose: 9.0 mg/kg/injection, schedule: Q01DX001 (ip), vehicle: other): 120 % of control
- T/C (dose: 20.0 mg/kg/injection, schedule: Q01DX001 (ip), vehicle: other): 161 % of control
- T/C (dose: 30.0 mg/kg/injection, schedule: Q01DX001 (ip), vehicle: other): 289 % of control

Structure (SMILES): CC(=O)c1ccc(NC(=O)C(F)(F)F)cc1
- T/C (dose: 50.0 mg/kg/injection, schedule: Q01DX001 (ip), vehicle: carboxymethylcellulose (CMC)): 101 % of control
- T/C [14]: 95 % of control
- T/C [15]: 97 % of control
- T/C [16]: 92 % of control

Structure (SMILES): O=C(NCCCl)NC1c2cc(Cl)ccc2-c2c(Cl)cc(Cl)cc21 (stereo unspecified)
- T/C [6]: 92 % of control
- T/C [8]: 87 % of control
- T/C [9]: 94 % of control
- T/C [7]: 96 % of control
- T/C [10]: 90 % of control
- T/C [11]: 98 % of control
- T/C [17]: 92 % of control
- T/C [12]: 95 % of control
- T/C [13]: 98 % of control

Structure (SMILES): N=C(N)S/C=C/CSC(=N)N
- T/C (dose: 10.0 mg/kg/injection, schedule: Q01DX001 (ip), vehicle: saline): 90 % of control
- T/C (dose: 20.0 mg/kg/injection, schedule: Q01DX001 (ip), vehicle: saline): 95 % of control
- T/C (dose: 40.0 mg/kg/injection, schedule: Q01DX001 (ip), vehicle: saline): 95 % of control
- T/C (dose: 80.0 mg/kg/injection, schedule: Q01DX001 (ip), vehicle: saline): 97 % of control

Structure (SMILES): CCCc1cc(CN2CCCCC2)c(O)c(CN2CCCCC2)c1O
- T/C (dose: 100.0 mg/kg/injection, schedule: Q01DX001 (ip), vehicle: saline): 96 % of control
- T/C (dose: 200.0 mg/kg/injection, schedule: Q01DX001 (ip), vehicle: saline): 95 % of control
- T/C (dose: 400.0 mg/kg/injection, schedule: Q01DX001 (ip), vehicle: saline): 88 % of control

Structure (SMILES): CC12CCC(O)CC1=CCC1C2CCC2(C)C1CCC2(O)C#CCN(CCCl)CCCl (stereo unspecified)
- T/C (dose: 50.0 mg/kg/injection, schedule: Q04DX003 (sc), vehicle: steriod suspending solution): 93 % of control
- T/C (dose: 100.0 mg/kg/injection, schedule: Q04DX003 (sc), vehicle: steriod suspending solution): 112 % of control
- T/C (dose: 200.0 mg/kg/injection, schedule: Q04DX003 (sc), vehicle: steriod suspending solution): 100 % of control
- T/C (dose: 400.0 mg/kg/injection, schedule: Q04DX003 (sc), vehicle: steriod suspending solution): 99 % of control

Structure (SMILES): CC(C)(C)c1cc(CN2CCOCC2)cc(C(C)(C)C)c1O
- T/C [4]: 96 % of control
- T/C [5]: 104 % of control
- T/C [18]: 96 % of control

Structure (SMILES): Brc1ccc(C=C2c3ccccc3-c3ccccc32)cc1
- T/C [8]: 100 % of control
- T/C [9]: 96 % of control
- T/C [10]: 97 % of control
- T/C [11]: 97 % of control
- T/C [12]: 100 % of control
- T/C [13]: 94 % of control

Structure (SMILES): CCCCNC(=O)Nc1c(C)cccc1C
- T/C (dose: 100.0 mg/kg/injection, schedule: Q01DX009 (ip), vehicle: gum acacia): 99 % of control
- T/C (dose: 100.0 mg/kg/injection, schedule: Q04DX003 (ip), vehicle: gum acacia): 92 % of control
- T/C (dose: 200.0 mg/kg/injection, schedule: Q01DX009 (ip), vehicle: gum acacia): 87 % of control
- T/C (dose: 200.0 mg/kg/injection, schedule: Q04DX003 (ip), vehicle: gum acacia): 91 % of control
- T/C (dose: 400.0 mg/kg/injection, schedule: Q01DX009 (ip), vehicle: gum acacia): 87 % of control
- T/C (dose: 400.0 mg/kg/injection, schedule: Q04DX003 (ip), vehicle: gum acacia): 92 % of control

Structure (SMILES): COc1ccc(CCC2(C=O)CNCN2)cc1 (stereo unspecified)
- T/C (dose: 100.0 mg/kg/injection, schedule: Q01DX001 (ip), vehicle: other): 98 % of control
- T/C (dose: 200.0 mg/kg/injection, schedule: Q01DX001 (ip), vehicle: other): 93 % of control

Structure (SMILES): C=C(NC(=O)Cc1ccccc1)C(=O)OC
- T/C [4]: 92 % of control
- T/C (dose: 100.0 mg/kg/injection, schedule: Q04DX003 (ip), vehicle: saline with Tween-80): 102 % of control
- T/C [5]: 95 % of control
- T/C (dose: 200.0 mg/kg/injection, schedule: Q04DX003 (ip), vehicle: saline with Tween-80): 95 % of control
- T/C [18]: 95 % of control
- T/C (dose: 400.0 mg/kg/injection, schedule: Q04DX003 (ip), vehicle: saline with Tween-80): 91 % of control
